Experiment: (§1) The drug is tested on WLS-038 corresponding to human gut metagenome with ENA study accession number: PRJEB37062 and ENA sample accession number: ERS12561745 for biotransformation under anaerobic condition. The drug concentrations were measured over 9 timepoints collected between 0 and 24 hours of incubation by liquid-chromatography-coupled mass spectrometry (LC–MS)
Details: 2 µM
Note: call rule not given here.

| Bacterial Biotransformation | Compound |
| --- | --- |
| Compound NOT metabolized | CC1Cc2ccccc2N1NC(=O)c1ccc(Cl)c(S(N)(=O)=O)c1 (stereo not given) [INDAPAMIDE] |
| Compound metabolized | COc1ccc2c(c1)c(CC(=O)O)c(C)n2C(=O)c1ccc(Cl)cc1 [INDOMETHACIN] |
| Compound NOT metabolized | CC(CCc1ccccc1)NCC(O)c1ccc(O)c(C(N)=O)c1 (stereo not given) [LABETALOL] |
| Compound NOT metabolized | Nc1nnc(-c2cccc(Cl)c2Cl)c(N)n1 [LAMOTRIGINE] |

Experiment: as §1, with “Z-012” for “WLS-038”, “to” for “to human gut”, “ERS12561812” for “ERS12561745”
Details: 2 µM

| Bacterial Biotransformation | Compound |
| --- | --- |
| Compound NOT metabolized | CC1Cc2ccccc2N1NC(=O)c1ccc(Cl)c(S(N)(=O)=O)c1 (stereo not given) [INDAPAMIDE] |
| Compound NOT metabolized | COc1ccc2c(c1)c(CC(=O)O)c(C)n2C(=O)c1ccc(Cl)cc1 [INDOMETHACIN] |
| Compound NOT metabolized | CC(CCc1ccccc1)NCC(O)c1ccc(O)c(C(N)=O)c1 (stereo not given) [LABETALOL] |
| Compound NOT metabolized | Nc1nnc(-c2cccc(Cl)c2Cl)c(N)n1 [LAMOTRIGINE] |

Details: human gut metagenome, 24 h, 2 µM

| Bacterial Biotransformation | Compound |
| --- | --- |
| Compound NOT metabolized | CC1Cc2ccccc2N1NC(=O)c1ccc(Cl)c(S(N)(=O)=O)c1 (stereo not given) [INDAPAMIDE] |
| Compound metabolized | COc1ccc2c(c1)c(CC(=O)O)c(C)n2C(=O)c1ccc(Cl)cc1 [INDOMETHACIN] |
| Compound NOT metabolized | CC(CCc1ccccc1)NCC(O)c1ccc(O)c(C(N)=O)c1 (stereo not given) [LABETALOL] |
| Compound NOT metabolized | Nc1nnc(-c2cccc(Cl)c2Cl)c(N)n1 [LAMOTRIGINE] |

Details: human gut metagenome, 24 h, 2 µM
Remark: another data set of the same source

| Bacterial Biotransformation | Compound |
| --- | --- |
| Compound NOT metabolized | CC1Cc2ccccc2N1NC(=O)c1ccc(Cl)c(S(N)(=O)=O)c1 (stereo not given) [INDAPAMIDE] |
| Compound metabolized | COc1ccc2c(c1)c(CC(=O)O)c(C)n2C(=O)c1ccc(Cl)cc1 [INDOMETHACIN] |
| Compound NOT metabolized | CC(CCc1ccccc1)NCC(O)c1ccc(O)c(C(N)=O)c1 (stereo not given) [LABETALOL] |
| Compound NOT metabolized | Nc1nnc(-c2cccc(Cl)c2Cl)c(N)n1 [LAMOTRIGINE] |

Details: human gut metagenome, 24 h, 2 µM
Remark: another data set of the same source

| Bacterial Biotransformation | Compound |
| --- | --- |
| Compound NOT metabolized | CC1Cc2ccccc2N1NC(=O)c1ccc(Cl)c(S(N)(=O)=O)c1 (stereo not given) [INDAPAMIDE] |
| Compound metabolized | COc1ccc2c(c1)c(CC(=O)O)c(C)n2C(=O)c1ccc(Cl)cc1 [INDOMETHACIN] |
| Compound NOT metabolized | CC(CCc1ccccc1)NCC(O)c1ccc(O)c(C(N)=O)c1 (stereo not given) [LABETALOL] |
| Compound NOT metabolized | Nc1nnc(-c2cccc(Cl)c2Cl)c(N)n1 [LAMOTRIGINE] |

Experiment: as §1, with “Z-024” for “WLS-038”, “pig” for “human”, “ERS12561823” for “ERS12561745”
Details: 2 µM

| Bacterial Biotransformation | Compound |
| --- | --- |
| Compound NOT metabolized | CC1Cc2ccccc2N1NC(=O)c1ccc(Cl)c(S(N)(=O)=O)c1 (stereo not given) [INDAPAMIDE] |
| Compound NOT metabolized | COc1ccc2c(c1)c(CC(=O)O)c(C)n2C(=O)c1ccc(Cl)cc1 [INDOMETHACIN] |
| Compound metabolized | CC(CCc1ccccc1)NCC(O)c1ccc(O)c(C(N)=O)c1 (stereo not given) [LABETALOL] |
| Compound NOT metabolized | Nc1nnc(-c2cccc(Cl)c2Cl)c(N)n1 [LAMOTRIGINE] |

Experiment: as §1, with “WLS-069” for “WLS-038”, “ERS12561748” for “ERS12561745”
Details: 2 µM

| Bacterial Biotransformation | Compound |
| --- | --- |
| Compound NOT metabolized | CC1Cc2ccccc2N1NC(=O)c1ccc(Cl)c(S(N)(=O)=O)c1 (stereo not given) [INDAPAMIDE] |
| Compound metabolized | COc1ccc2c(c1)c(CC(=O)O)c(C)n2C(=O)c1ccc(Cl)cc1 [INDOMETHACIN] |
| Compound NOT metabolized | CC(CCc1ccccc1)NCC(O)c1ccc(O)c(C(N)=O)c1 (stereo not given) [LABETALOL] |
| Compound NOT metabolized | Nc1nnc(-c2cccc(Cl)c2Cl)c(N)n1 [LAMOTRIGINE] |

Experiment: as §1, with “Z-002” for “WLS-038”, “rabbit” for “human”, “ERS12561802” for “ERS12561745”
Details: 2 µM

| Bacterial Biotransformation | Compound |
| --- | --- |
| Compound NOT metabolized | CC1Cc2ccccc2N1NC(=O)c1ccc(Cl)c(S(N)(=O)=O)c1 (stereo not given) [INDAPAMIDE] |
| Compound NOT metabolized | COc1ccc2c(c1)c(CC(=O)O)c(C)n2C(=O)c1ccc(Cl)cc1 [INDOMETHACIN] |
| Compound NOT metabolized | CC(CCc1ccccc1)NCC(O)c1ccc(O)c(C(N)=O)c1 (stereo not given) [LABETALOL] |
| Compound NOT metabolized | Nc1nnc(-c2cccc(Cl)c2Cl)c(N)n1 [LAMOTRIGINE] |

Details: human gut metagenome, 24 h, 2 µM
Remark: another data set of the same source

| Bacterial Biotransformation | Compound |
| --- | --- |
| Compound NOT metabolized | CC1Cc2ccccc2N1NC(=O)c1ccc(Cl)c(S(N)(=O)=O)c1 (stereo not given) [INDAPAMIDE] |
| Compound metabolized | COc1ccc2c(c1)c(CC(=O)O)c(C)n2C(=O)c1ccc(Cl)cc1 [INDOMETHACIN] |
| Compound NOT metabolized | CC(CCc1ccccc1)NCC(O)c1ccc(O)c(C(N)=O)c1 (stereo not given) [LABETALOL] |
| Compound NOT metabolized | Nc1nnc(-c2cccc(Cl)c2Cl)c(N)n1 [LAMOTRIGINE] |

Details: human gut metagenome, 24 h, 2 µM
Remark: another data set of the same source

| Bacterial Biotransformation | Compound |
| --- | --- |
| Compound NOT metabolized | CC1Cc2ccccc2N1NC(=O)c1ccc(Cl)c(S(N)(=O)=O)c1 (stereo not given) [INDAPAMIDE] |
| Compound metabolized | COc1ccc2c(c1)c(CC(=O)O)c(C)n2C(=O)c1ccc(Cl)cc1 [INDOMETHACIN] |
| Compound NOT metabolized | CC(CCc1ccccc1)NCC(O)c1ccc(O)c(C(N)=O)c1 (stereo not given) [LABETALOL] |
| Compound NOT metabolized | Nc1nnc(-c2cccc(Cl)c2Cl)c(N)n1 [LAMOTRIGINE] |

Experiment: as §1, with “Z-016” for “WLS-038”, “mouse” for “human”, “ERS12561815” for “ERS12561745”
Details: 2 µM

| Bacterial Biotransformation | Compound |
| --- | --- |
| Compound NOT metabolized | CC1Cc2ccccc2N1NC(=O)c1ccc(Cl)c(S(N)(=O)=O)c1 (stereo not given) [INDAPAMIDE] |
| Compound NOT metabolized | COc1ccc2c(c1)c(CC(=O)O)c(C)n2C(=O)c1ccc(Cl)cc1 [INDOMETHACIN] |
| Compound NOT metabolized | CC(CCc1ccccc1)NCC(O)c1ccc(O)c(C(N)=O)c1 (stereo not given) [LABETALOL] |
| Compound NOT metabolized | Nc1nnc(-c2cccc(Cl)c2Cl)c(N)n1 [LAMOTRIGINE] |

Details: human gut metagenome, 24 h, 2 µM
Remark: another data set of the same source

| Bacterial Biotransformation | Compound |
| --- | --- |
| Compound NOT metabolized | CC1Cc2ccccc2N1NC(=O)c1ccc(Cl)c(S(N)(=O)=O)c1 (stereo not given) [INDAPAMIDE] |
| Compound NOT metabolized | COc1ccc2c(c1)c(CC(=O)O)c(C)n2C(=O)c1ccc(Cl)cc1 [INDOMETHACIN] |
| Compound NOT metabolized | CC(CCc1ccccc1)NCC(O)c1ccc(O)c(C(N)=O)c1 (stereo not given) [LABETALOL] |
| Compound NOT metabolized | Nc1nnc(-c2cccc(Cl)c2Cl)c(N)n1 [LAMOTRIGINE] |

Details: human gut metagenome, 24 h, 2 µM
Remark: another data set of the same source

| Bacterial Biotransformation | Compound |
| --- | --- |
| Compound NOT metabolized | CC1Cc2ccccc2N1NC(=O)c1ccc(Cl)c(S(N)(=O)=O)c1 (stereo not given) [INDAPAMIDE] |
| Compound metabolized | COc1ccc2c(c1)c(CC(=O)O)c(C)n2C(=O)c1ccc(Cl)cc1 [INDOMETHACIN] |
| Compound NOT metabolized | CC(CCc1ccccc1)NCC(O)c1ccc(O)c(C(N)=O)c1 (stereo not given) [LABETALOL] |
| Compound NOT metabolized | Nc1nnc(-c2cccc(Cl)c2Cl)c(N)n1 [LAMOTRIGINE] |

Experiment: as §1, with “Z-029” for “WLS-038”, “rat” for “human”, “ERS12561828” for “ERS12561745”
Details: 2 µM

| Bacterial Biotransformation | Compound |
| --- | --- |
| Compound NOT metabolized | CC1Cc2ccccc2N1NC(=O)c1ccc(Cl)c(S(N)(=O)=O)c1 (stereo not given) [INDAPAMIDE] |
| Compound NOT metabolized | COc1ccc2c(c1)c(CC(=O)O)c(C)n2C(=O)c1ccc(Cl)cc1 [INDOMETHACIN] |
| Compound NOT metabolized | CC(CCc1ccccc1)NCC(O)c1ccc(O)c(C(N)=O)c1 (stereo not given) [LABETALOL] |
| Compound NOT metabolized | Nc1nnc(-c2cccc(Cl)c2Cl)c(N)n1 [LAMOTRIGINE] |

Experiment: as §1, with “WLS-240” for “WLS-038”, “ERS12561773” for “ERS12561745”
Details: 2 µM

| Bacterial Biotransformation | Compound |
| --- | --- |
| Compound NOT metabolized | CC1Cc2ccccc2N1NC(=O)c1ccc(Cl)c(S(N)(=O)=O)c1 (stereo not given) [INDAPAMIDE] |
| Compound metabolized | COc1ccc2c(c1)c(CC(=O)O)c(C)n2C(=O)c1ccc(Cl)cc1 [INDOMETHACIN] |
| Compound metabolized | CC(CCc1ccccc1)NCC(O)c1ccc(O)c(C(N)=O)c1 (stereo not given) [LABETALOL] |
| Compound metabolized | Nc1nnc(-c2cccc(Cl)c2Cl)c(N)n1 [LAMOTRIGINE] |

Experiment: as §1, with “WLS-098” for “WLS-038”, “ERS12561754” for “ERS12561745”
Details: 2 µM

| Bacterial Biotransformation | Compound |
| --- | --- |
| Compound NOT metabolized | CC1Cc2ccccc2N1NC(=O)c1ccc(Cl)c(S(N)(=O)=O)c1 (stereo not given) [INDAPAMIDE] |
| Compound metabolized | COc1ccc2c(c1)c(CC(=O)O)c(C)n2C(=O)c1ccc(Cl)cc1 [INDOMETHACIN] |
| Compound NOT metabolized | CC(CCc1ccccc1)NCC(O)c1ccc(O)c(C(N)=O)c1 (stereo not given) [LABETALOL] |
| Compound metabolized | Nc1nnc(-c2cccc(Cl)c2Cl)c(N)n1 [LAMOTRIGINE] |

Details: human gut metagenome, 24 h, 2 µM
Remark: another data set of the same source

| Bacterial Biotransformation | Compound |
| --- | --- |
| Compound NOT metabolized | CC1Cc2ccccc2N1NC(=O)c1ccc(Cl)c(S(N)(=O)=O)c1 (stereo not given) [INDAPAMIDE] |
| Compound metabolized | COc1ccc2c(c1)c(CC(=O)O)c(C)n2C(=O)c1ccc(Cl)cc1 [INDOMETHACIN] |
| Compound NOT metabolized | CC(CCc1ccccc1)NCC(O)c1ccc(O)c(C(N)=O)c1 (stereo not given) [LABETALOL] |
| Compound NOT metabolized | Nc1nnc(-c2cccc(Cl)c2Cl)c(N)n1 [LAMOTRIGINE] |

Experiment: as §1, with “Z-027” for “WLS-038”, “to” for “to human gut”, “ERS12561826” for “ERS12561745”
Details: 2 µM

| Bacterial Biotransformation | Compound |
| --- | --- |
| Compound NOT metabolized | CC1Cc2ccccc2N1NC(=O)c1ccc(Cl)c(S(N)(=O)=O)c1 (stereo not given) [INDAPAMIDE] |
| Compound metabolized | COc1ccc2c(c1)c(CC(=O)O)c(C)n2C(=O)c1ccc(Cl)cc1 [INDOMETHACIN] |
| Compound metabolized | CC(CCc1ccccc1)NCC(O)c1ccc(O)c(C(N)=O)c1 (stereo not given) [LABETALOL] |
| Compound NOT metabolized | Nc1nnc(-c2cccc(Cl)c2Cl)c(N)n1 [LAMOTRIGINE] |

Details: human gut metagenome, 24 h, 2 µM
Remark: another data set of the same source

| Bacterial Biotransformation | Compound |
| --- | --- |
| Compound NOT metabolized | CC1Cc2ccccc2N1NC(=O)c1ccc(Cl)c(S(N)(=O)=O)c1 (stereo not given) [INDAPAMIDE] |
| Compound metabolized | COc1ccc2c(c1)c(CC(=O)O)c(C)n2C(=O)c1ccc(Cl)cc1 [INDOMETHACIN] |
| Compound NOT metabolized | CC(CCc1ccccc1)NCC(O)c1ccc(O)c(C(N)=O)c1 (stereo not given) [LABETALOL] |
| Compound NOT metabolized | Nc1nnc(-c2cccc(Cl)c2Cl)c(N)n1 [LAMOTRIGINE] |

Experiment: as §1, with “Z-011” for “WLS-038”, “mouse” for “human”, “ERS12561811” for “ERS12561745”
Details: 2 µM

| Bacterial Biotransformation | Compound |
| --- | --- |
| Compound NOT metabolized | CC1Cc2ccccc2N1NC(=O)c1ccc(Cl)c(S(N)(=O)=O)c1 (stereo not given) [INDAPAMIDE] |
| Compound NOT metabolized | COc1ccc2c(c1)c(CC(=O)O)c(C)n2C(=O)c1ccc(Cl)cc1 [INDOMETHACIN] |
| Compound NOT metabolized | CC(CCc1ccccc1)NCC(O)c1ccc(O)c(C(N)=O)c1 (stereo not given) [LABETALOL] |
| Compound NOT metabolized | Nc1nnc(-c2cccc(Cl)c2Cl)c(N)n1 [LAMOTRIGINE] |

From ChEMBL document CHEMBL5724914, “Linking interpersonal differences in gut microbiota composition and drug biotransformation activity” (2024)
